# What was measured:
# [1] = test system: trimethylation of lysine 9 of histone H3 (H3K9me3); experiment: Western blot of H3K9me3 in bone marrow erythroblast subset II; type: in vivo, mouse; conditions: CLEU, BM erythroblast subset II, Day 2, vs PBS
# Excerpt: FIG. 4 is the experimental result showing that epigenetic demethylation induces the final maturation of erythroblasts. Panel A: WGBS (whole genome bisulfite sequencing) results of bone marrow erythroblast subset II harvested from CLEU or PBS treated mouse (Day 2) (CLEU; n=2, PBS; n=2). Panel B: Difference in expression levels versus difference in CpG methylation of the promoter for all expressed genes (at least one of FPKM>10 and CV<0.5). The correlation (Cor) was −0.08. […] The correlation (Cor) was −0.11. Panel D: Images (photographs) showing western blot (WB) results of trimethylation of lysine 9 of histone H3 (H3K9me3) on bone marrow erythroblast subset II harvested from CLEU or PBS treated mouse (Day 2). Panels E-G: In vitro red blood cell differentiation of Human CD34^+ cord blood cells. Panel E: Representative results of flow cytometric analysis. Panel F: Cumulative results for the indicated cell population. Panel G: Cumulative results for CD34 EMI (CD34 red blood cell maturation index: CD71^+ GlyA^+/CD71^+ GlyA^−). Each point shown in the box plots represents each technical replicate. Asterisk indicates P<0.001.
# (§1) The overall transcriptional changes observed as above could be attributed to epigenetic modification changes due to the reduced abundance of intracellular SAM (Panel A of FIG. 2). […]
# DNA CpG methylation = experiment: Whole genome bisulfite sequencing (WGBS) of bone marrow erythroblast subset II; type: in vivo, mouse; conditions: CLEU, BM erythroblast subset II, Day 2, vs PBS
# Description: DNA was isolated by using phenol/chloroform extraction from sorted sample of bone marrow subset II erythroblasts (PBS; n=2, CLEU; n=2). DNA quality control, bisulfite conversion, library preparation, high-throughput sequencing, and data mapping were performed at Macrogen, Inc. Briefly, TruSeq DNA Methylation Kit and EZ DNA Methylation Gold (Illumina and Zymo Research) were used for library preparation according to the manufacturer's protocol (TruSeq DNA Methylation Library Preparation Guide), followed by high-throughput sequencing by HiseqX (Illumina). After the sequencing run, the raw sequence reads were filtered based on quality, and the adapter sequences were trimmed off. The remaining reads are mapped to the reference genome (mm9) using BSMAP based on SOAP (Short Oligo Alignment Program). SAMBAMBA version 0.5.9 was used to remove index and PCR duplicates, and to select reads with modification. Methylation level was calculated for every single cytosine from mapping results using BSMAP version 2.87. Only cytosine positions with >=5 reads coverage were used for further analysis.
# as §1
smiles,measurement,setting,value
"NC1(C(=O)O)CCCC1 [CLEU, cycloleucine]",trimethylation of H3K9,[1],decreased
same,reduction of DNA CpG methylation overall,DNA CpG methylation,about 2%

# From US11554124B2, “Hematopoiesis-enhancing agent” (priority 2018, dated 2023)
